Patent publication US6677473B1, “Plasminogen activator inhibitor antagonists” (Corvas International INC, priority 1999, dated 2004)

Molecular target: T1, Human recombinant PAI-1 (Homo sapiens, UniProt P05121)
T1 construct: made in house; host or cells: E. coli
Experiment: Chromogenic assay for plasminogen activator inhibitor type-1 (PAI-1) antagonism (tPA / glu-plasminogen / Spectrozyme PL, OD405)
Type: biochemical
Details: determined by comparison with control reactions; assay variant (#1-#4) not given; read-out: IC50 for PAI antagonist activity
Protocol: PAI-1 antagonist assays were performed in a buffer containing Tris, 0.05 mol/L, pH 7.4, 100 mmol/L NaCl, 1 mmol/L EDTA, and 0.01% Tween 80. Human recombinant PAI-1 purified from E coli. and human recombinant tPA were diluted into this standard assay buffer at concentrations of approximately 500-600 ng/mL and 100 ng/mL, respectively. PAI-1 antagonists were dissolved first in DMSO at a concentration of approximately 5 mg/mL, and these solutions were then diluted into the standard reaction buffer to achieve a final compound concentration of 1 mg/mL. Native, purified human glu-plasminogen was purchased from Boehringer Mannheim and was supplied as a lyophilized powder, which was first reconstituted in sterile water to a concentration of 55 μmol/L and then diluted to a concentration of 0.825 μmol/L in standard assay buffer. The chromogenic substrate Spectrozyme PL (H—D-Norleucyl-hexahydrotyrosyl-lysine-p-nitroanilide, American Diagnostica) was prepared as a stock solution with a concentration of 2.5 mmol/L in sterile water. Human fibrin monomer (DESAFIB) was purchased from American Diagnostica and was supplied as a lyophilized powder, which was reconstituted in standard assay buffer at a concentration of 100 μg/mL.
The chromogenic assay utilized the reagents described above. Fresh reagent solutions were prepared prior to each assay. Assays were performed in individual wells of standard 96 well mocrotiter assay plates. Standard assays were prepared as follows:
The following reagents were combined:
The plate was agitated or the individual 25 μL mixtures were pipetted up and down once or twice to assure proper mixing of reagents. The resulting mixture was incubated 15 minutes at room temperature (approximately 21° C.).
The following was added to each reaction:
The microtiter assay plate was then placed into a Molecular Devices Thermomax or Spectromax Plate Reader, agitated to assure thorough mixing of reagents, and incubated at 37° C. The OD405 of each reaction mixture is measured every minute for 1 hour. Control reactions which lack PAI-1; PAI-1 and test compound; t-PA; or t-PA, PAI-1 and test compound were performed in each assay.
Assay #2 was performed exactly as assay #1 except that a 10 minute preincubation of the test compound and PAI-1 was performed at room temperature prior to the addition of t-PA.
Assay #3 was performed exactly as assay #1 except that a wide range of concentrations of each test compound, depending upon the potency of the individual compound, was used in the assay.
Assay #4 was performed exactly as assay #2 except that a wide range of concentrations of each test compound, depending upon the potency of the individual compound, was used in the assay.
The generated plasmin cleaved the chromogenic substrate, Spectrozyme PL, producing pNA (para-nitroaniline). The pNA was detected spectrophotometrically at 405 nm.
The degree of inhibition at various concentrations and/or the IC50 value for the compounds provided herein was determined by comparison with control reactions. The IC50 for PAI antagonist activity for each of the compounds specifically disclosed herein has been measured.

T1 sequence (P05121 24-402): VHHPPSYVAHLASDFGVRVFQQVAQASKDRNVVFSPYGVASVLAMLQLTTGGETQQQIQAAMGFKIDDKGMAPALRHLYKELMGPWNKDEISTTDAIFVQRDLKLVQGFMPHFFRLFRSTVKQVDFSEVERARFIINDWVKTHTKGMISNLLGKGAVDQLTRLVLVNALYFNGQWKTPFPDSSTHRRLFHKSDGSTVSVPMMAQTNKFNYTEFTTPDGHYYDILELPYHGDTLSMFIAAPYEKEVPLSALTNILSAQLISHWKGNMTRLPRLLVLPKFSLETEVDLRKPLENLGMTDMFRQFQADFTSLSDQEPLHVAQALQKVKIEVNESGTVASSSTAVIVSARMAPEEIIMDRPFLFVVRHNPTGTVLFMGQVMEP

| IC50 [µM] | SMILES |
| --- | --- |
| < 50 | O=C(C(=O)c1cc(I)c(O)c(I)c1)c1cc(I)c(O)c(I)c1 [1,2-bis-(4-hydroxy-3,5-diiodophenyl)ethane-1,2-dione] |
| < 50 | Cc1ccccc1COc1c(I)cc(C(=O)O)cc1I [3,5-diiodo-4-(2-methylbenzyloxy)benzoic acid] |
| < 10 | O=C(O)c1cc(I)c(OCc2ccc(I)cc2)c(I)c1 [3,5-diiodo-4-(4-iodobenzyloxy)benzoic acid] |
| < 10 | O=C(O)CCc1cc(I)c(OCc2ccc(I)cc2)c(I)c1 [3-[3,5-diiodo-4-(4-iodobenzyloxy)phenyl]propionic acid] |
| < 100 | O=C(O)c1cc(I)c(OCc2c(F)cccc2F)c(I)c1 [4-(2,6-difluorobenzyloxy)-3,5-diiodobenzoic acid] |
| < 50 | O=C(O)CCCCCCCCCCOc1c(I)cc(C(=O)O)cc1I [4-(10-carboxydecyloxy)-3,5-diiodobenzoic acid] |
| < 100 | O=C(c1ccccc1)c1cc(I)c(O)c(I)c1 [(4-hydroxy-3,5-diiodophenyl)-phenyl-methanone] |
| < 10 | O=C(c1cc(I)c(O)c(I)c1)c1cc(I)c(OCc2cccc(I)c2)c(I)c1 [[3,5-diiodo-4-(3-iodobenzyloxy)phenyl]-(4-hydroxy-3,5-diiodophenyl)methanone] |
| < 100 | O=C(O)COc1c(I)cc(C(=O)c2cc(I)c(O)c(I)c2)cc1I [[4-(4-hydroxy-3,5-diiodobenzoyl)-2,6-diiodophenoxy]acetic acid] |
| < 50 | O=C(c1cc(I)c(O)c(I)c1)c1cc(I)c(O)c(I)c1 [bis(4-hydroxy-3,5-diiodophenyl)methanone] |
